Laboratory results from patent US10040790B2, “Bicyclic heterocycles as FGFR inhibitors” (Incyte Corporation, priority 2013, dated 2018).

How the values were obtained:
Type in all cases: biochemical
FGFR2 = FGFR2 (Homo sapiens (Human), UniProt P21802); test: FGFR Enzymatic Assay (FRET peptide phosphorylation), FGFR2; conditions: ATP 100 μM, enzyme 0.01 nM
Description: (§1) The inhibitor potency of the exemplified compounds was measured in an enzyme assay that measures peptide phosphorylation using FRET measurements to detect product formation. Inhibitors were serially diluted in DMSO and a volume of 0.5 μL was transferred to the wells of a 384-well plate. For FGFR3, a 10 μL volume of FGFR3 enzyme (Millipore) diluted in assay buffer (50 mM HEPES, 10 mM MgCl2, 1 mM EGTA, 0.01% Tween-20, 5 mM DTT, pH 7.5) was added to the plate and pre-incubated for 5-10 minutes. Appropriate controls (enzyme blank and enzyme with no inhibitor) were included on the plate. The assay was initiated by the addition of a 10 μL solution containing biotinylated EQEDEPEGDYFEWLE peptide substrate (SEQ ID NO: 1) and ATP (final concentrations of 500 nM and 140 μM respectively) in assay buffer to the wells. The plate was incubated at 25° C. for 1 hr. The reactions were ended with the addition of 10 μL/well of quench solution (50 mM Tris, 150 mM NaCl, 0.5 mg/mL BSA, pH 7.8; 30 mM EDTA with Perkin Elmer Lance Reagents at 3.75 nM Eu-antibody PY20 and 180 nM APC-Streptavidin). The plate was allowed to equilibrate for ˜1 hr before scanning the wells on a PheraStar plate reader (BMG Labtech).
(§2) FGFR1 and FGFR2 were measured under equivalent conditions with the following changes in enzyme and ATP concentrations: FGFR1, 0.02 nM and 210 μM, respectively and FGFR2, 0.01 nM and 100 μM, respectively. The enzymes were purchased from Millipore or Invitrogen.
(§3) GraphPad prism3 was used to analyze the data. The IC50 values were derived by fitting the data to the equation for a sigmoidal dose-response with a variable slope. Y=Bottom+(Top−Bottom)/(1+10^((Log IC50−X)*HillSlope)) where X is the logarithm of concentration and Y is the response.

FGFR3 = FGFR3 (Homo sapiens (Human), UniProt P22607); test: FGFR Enzymatic Assay (FRET peptide phosphorylation), FGFR3; conditions: ATP 140 μM
Description: as §1, §3

FGFR1 = FGFR1 (Homo sapiens (Human), UniProt P11362); test: FGFR Enzymatic Assay (FRET peptide phosphorylation), FGFR1; conditions: ATP 210 μM, enzyme 0.02 nM
Description: as §1, §2, §3

Sequence of FGFR2 (P21802 22-821): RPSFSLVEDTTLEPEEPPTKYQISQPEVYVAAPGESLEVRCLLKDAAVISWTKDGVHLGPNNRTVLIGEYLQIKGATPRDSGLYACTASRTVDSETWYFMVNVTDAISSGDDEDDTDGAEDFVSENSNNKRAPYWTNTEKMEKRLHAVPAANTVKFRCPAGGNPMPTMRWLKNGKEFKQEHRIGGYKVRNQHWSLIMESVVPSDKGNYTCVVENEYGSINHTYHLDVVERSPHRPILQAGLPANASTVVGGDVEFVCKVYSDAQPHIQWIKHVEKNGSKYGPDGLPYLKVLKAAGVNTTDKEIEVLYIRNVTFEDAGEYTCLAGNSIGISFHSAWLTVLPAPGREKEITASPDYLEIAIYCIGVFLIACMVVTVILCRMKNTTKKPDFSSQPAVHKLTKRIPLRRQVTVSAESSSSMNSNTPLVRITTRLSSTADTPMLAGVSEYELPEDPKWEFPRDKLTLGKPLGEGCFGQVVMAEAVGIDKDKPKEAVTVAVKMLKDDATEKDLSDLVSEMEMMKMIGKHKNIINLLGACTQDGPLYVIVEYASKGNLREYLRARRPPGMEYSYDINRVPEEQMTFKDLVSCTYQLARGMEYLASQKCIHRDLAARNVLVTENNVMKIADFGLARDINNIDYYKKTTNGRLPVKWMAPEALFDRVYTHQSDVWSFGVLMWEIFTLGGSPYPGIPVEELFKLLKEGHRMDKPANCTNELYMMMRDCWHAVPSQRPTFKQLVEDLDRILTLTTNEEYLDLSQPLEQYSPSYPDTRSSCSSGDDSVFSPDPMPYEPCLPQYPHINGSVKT
Sequence of FGFR1 (P11362 22-822): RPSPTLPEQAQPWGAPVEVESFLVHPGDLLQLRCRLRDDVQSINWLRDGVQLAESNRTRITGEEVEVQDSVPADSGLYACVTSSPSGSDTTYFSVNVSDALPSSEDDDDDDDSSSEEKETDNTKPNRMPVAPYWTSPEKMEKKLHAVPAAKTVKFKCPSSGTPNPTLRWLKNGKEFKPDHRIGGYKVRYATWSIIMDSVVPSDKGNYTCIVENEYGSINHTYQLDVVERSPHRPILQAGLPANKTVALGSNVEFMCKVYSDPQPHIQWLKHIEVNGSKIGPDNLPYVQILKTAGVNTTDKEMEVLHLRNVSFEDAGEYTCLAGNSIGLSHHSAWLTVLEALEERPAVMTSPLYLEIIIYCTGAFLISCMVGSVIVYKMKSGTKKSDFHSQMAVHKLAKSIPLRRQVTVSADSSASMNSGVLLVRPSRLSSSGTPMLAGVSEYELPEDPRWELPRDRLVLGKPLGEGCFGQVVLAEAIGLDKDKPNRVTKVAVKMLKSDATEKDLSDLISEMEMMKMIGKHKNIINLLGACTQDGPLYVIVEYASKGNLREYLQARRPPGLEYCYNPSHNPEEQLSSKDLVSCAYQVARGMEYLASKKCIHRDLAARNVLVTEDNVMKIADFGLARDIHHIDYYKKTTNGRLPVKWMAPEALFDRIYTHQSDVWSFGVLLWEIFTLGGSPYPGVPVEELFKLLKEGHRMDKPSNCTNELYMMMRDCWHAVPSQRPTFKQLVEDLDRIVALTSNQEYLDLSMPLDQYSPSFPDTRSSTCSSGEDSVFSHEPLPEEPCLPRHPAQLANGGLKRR
Sequence of FGFR3 (P22607 23-806): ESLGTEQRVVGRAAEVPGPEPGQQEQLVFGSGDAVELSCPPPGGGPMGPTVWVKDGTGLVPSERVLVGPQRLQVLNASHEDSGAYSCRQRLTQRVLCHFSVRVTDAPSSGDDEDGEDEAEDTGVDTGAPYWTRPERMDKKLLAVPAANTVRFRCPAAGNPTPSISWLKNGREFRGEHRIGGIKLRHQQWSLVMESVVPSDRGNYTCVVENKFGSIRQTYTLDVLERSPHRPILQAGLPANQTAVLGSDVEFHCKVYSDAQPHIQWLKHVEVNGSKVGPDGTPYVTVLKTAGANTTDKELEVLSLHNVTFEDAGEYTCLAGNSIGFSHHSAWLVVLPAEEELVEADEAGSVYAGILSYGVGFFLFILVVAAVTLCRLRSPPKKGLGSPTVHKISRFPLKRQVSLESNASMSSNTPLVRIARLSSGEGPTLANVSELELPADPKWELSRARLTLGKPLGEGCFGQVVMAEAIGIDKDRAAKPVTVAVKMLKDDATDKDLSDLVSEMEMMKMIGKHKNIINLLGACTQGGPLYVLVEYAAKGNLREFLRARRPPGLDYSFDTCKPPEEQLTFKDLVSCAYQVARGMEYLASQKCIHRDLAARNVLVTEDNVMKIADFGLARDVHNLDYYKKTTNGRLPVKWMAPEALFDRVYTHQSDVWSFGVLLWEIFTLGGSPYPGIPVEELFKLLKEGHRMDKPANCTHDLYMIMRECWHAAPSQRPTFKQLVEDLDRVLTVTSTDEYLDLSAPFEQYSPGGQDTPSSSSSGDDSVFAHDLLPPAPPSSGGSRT

IC50 (FGFR2) [nM]	IC50 (FGFR3) [nM]	IC50 (FGFR1) [nM]	Compound
< 100	< 100	< 100	COc1cc(OC)c(F)c(N2Cc3cnc(NC4CCCCC4)cc3C3(CC3)C2=O)c1F [Example 39, 6′-(cyclohexylamino)-2′-(2,6-difluoro-3,5-dimethoxyphenyl)-1′H-spiro[cyclopropane-1,4′-[2,7]naphthyridin]-3′(2′H)-one]
< 100	< 100	< 100	COc1cc(OC)c(F)c(N2Cc3cnc(Nc4cnn(C)c4)cc3C3(CC3)C2=O)c1F [Example 36, 2′-(2,6-difluoro-3,5-dimethoxyphenyl)-6′-(1-methyl-1H-pyrazol-4-ylamino)-1′H-spiro[cyclopropane-1,4′-[2,7]naphthyridin]-3′(2′H)-one]
< 100	< 100	< 100	COc1cc(OC)c(F)c(N2Cc3cnc(N)cc3C(C)(C)C2=O)c1F [Example 22, 6-amino-2-(2,6-difluoro-3,5-dimethoxyphenyl)-4,4-dimethyl-1,2-dihydro-2,7-naphthyridin-3(4H)-one]
< 100	< 100	< 100	COc1cc(OC)c(F)c(N2Cc3cnc(N)c(Cl)c3N(C)C2=O)c1F [Example 54, 7-amino-8-chloro-3-(2,6-difluoro-3,5-dimethoxyphenyl)-1-methyl-3,4-dihydropyrido[4,3-d]pyrimidin-2(1H)-one]
< 100	< 100	< 100	COc1cc(OC)c(F)c(N2Cc3cnc(N[C@H]4CC[C@H](O)CC4)cc3C3(CC3)C2=O)c1F [Example 40, 2′-(2,6-difluoro-3,5-dimethoxyphenyl)-6′-(trans-4-hydroxycyclohexylamino)-1′H-spiro[cyclopropane-1,4′-[2,7]naphthyridin]-3′(2′H)-one]
< 100	< 100	< 100	COc1cc(OC)c(F)c(N2Cc3cnc(N)c(C4=CCOCC4)c3N(C)C2=O)c1F [Example 21, 7-amino-3-(2,6-difluoro-3,5-dimethoxyphenyl)-8-(3,6-dihydro-2H-pyran-4-yl)-1-methyl-3,4-dihydropyrido[4,3-d]pyrimidin-2(1H)-one]
< 100	< 100	< 100	COc1cc(OC)c(F)c(N2Cc3cnc(NCCN4CCN(C)CC4)cc3C3(CC3)C2=O)c1F [Example 30, 2′-(2,6-difluoro-3,5-dimethoxyphenyl)-6′-(2-(4-methylpiperazin-1-yl)ethylamino)-1′H-spiro[cyclopropane-1,4′-[2,7]naphthyridin]-3′(2′H)-one]
< 100	< 100	< 100	COc1cc(OC)c(F)c(N2Cc3cnc(N)c(C#N)c3N(c3ccccc3F)C2=O)c1F [Example 53, 7-amino-3-(2,6-difluoro-3,5-dimethoxyphenyl)-1-(2-fluorophenyl)-2-oxo-1,2,3,4-tetrahydropyrido[4,3-d]pyrimidine-8-carbonitrile]
< 100	< 100	< 100	COc1cc(OC)c(F)c(N2Cc3cnc(N)c(OCCN4CCN(C)CC4)c3N(C)C2=O)c1F [Example 6, 7-amino-3-(2,6-difluoro-3,5-dimethoxyphenyl)-1-methyl-8-[2-(4-methylpiperazin-1-yl)ethoxy]-3,4-dihydropyrido[4,3-d]pyrimidin-2(1H)-one]
< 100	< 100	< 100	COc1cc(OC)c(F)c(N2Cc3cnc(N)cc3C3(CC3)C2=O)c1F [Example 24, 6′-amino-2′-(2,6-difluoro-3,5-dimethoxyphenyl)-1′H-spiro[cyclopropane-1,4′-[2,7]naphthyridin]-3′(2′H)-one]
< 100	< 100	< 100	COc1cc(OC)c(F)c(N2Cc3cnc(NCc4cnn(C)c4)cc3C3(CC3)C2=O)c1F [Example 37, 2′-(2,6-difluoro-3,5-dimethoxyphenyl)-6′-((1-methyl-1H-pyrazol-4-yl)methylamino)-1′H-spiro[cyclopropane-1,4′-[2,7]naphthyridin]-3′(2′H)-one]
< 100	< 100	< 100	COc1cc(OC)c(F)c(N2Cc3cnc(N)c(-c4ccccc4)c3N(C)C2=O)c1F [Example 14, 7-amino-3-(2,6-difluoro-3,5-dimethoxyphenyl)-1-methyl-8-phenyl-3,4-dihydropyrido[4,3-d]pyrimidin-2(1H)-one]
< 100	< 100	< 100	COc1cc(OC)c(F)c(N2Cc3cnc(NC[C@@H]4CCCO4)cc3C3(CC3)C2=O)c1F [Example 35, (S)-2′-(2,6-difluoro-3,5-dimethoxyphenyl)-6′-((tetrahydrofuran-2-yl)methylamino)-1′H-spiro[cyclopropane-1,4′-[2,7]naphthyridin]-3′(2′H)-one]
< 100	< 100	< 100	COc1cc(OC)c(F)c(N2Cc3cnc(N[C@H]4CCOC4)cc3C3(CC3)C2=O)c1F [Example 29, (S)-2′-(2,6-difluoro-3,5-dimethoxyphenyl)-6′-(tetrahydrofuran-3-ylamino)-1′H-spiro[cyclopropane-1,4′-[2,7]naphthyridin]-3′(2′H)-one]
< 100	< 100	< 100	COc1cc(OC)c(F)c(N2Cc3cnc(N)c(CCc4ccccc4)c3N(C)C2=O)c1F [Example 19, 7-amino-3-(2,6-difluoro-3,5-dimethoxyphenyl)-1-methyl-8-phenylethyl-3,4-dihydropyrido-[4,3-d]pyrimidin-2(1H)-one]
< 100	< 100	< 100	COc1cc(OC)c(F)c(N2Cc3cnc(N)c(C#N)c3N(Cc3cc(F)cc(F)c3)C2=O)c1F [Example 52, 7-amino-1-(3,5-difluorobenzyl)-3-(2,6-difluoro-3,5-dimethoxyphenyl)-2-oxo-1,2,3,4-tetrahydropyrido[4,3-d]pyrimidine-8-carbonitrile]
< 100	< 100	< 100	COc1cc(OC)c(F)c(N2Cc3cnc(Nc4cccc(F)c4)cc3C3(CC3)C2=O)c1F [Example 33, 2′-(2,6-difluoro-3,5-dimethoxyphenyl)-6′-(3-fluorophenylamino)-1′H-spiro[cyclopropane-1,4′-[2,7]naphthyridin]-3′(2′H)-one]
< 100	< 100	< 100	COc1cc(OC)c(F)c(N2Cc3cnc(N)c(/C=C/c4ccccc4)c3N(C)C2=O)c1F [Example 18, 7-amino-3-(2,6-difluoro-3,5-dimethoxyphenyl)-1-methyl-8-[(E)-2-phenylvinyl]-3,4-dihydropyrido[4,3-d]pyrimidin-2(1H)-one]
< 100	< 100	< 100	COc1cc(OC)c(F)c(N2Cc3cnc(NC4CCCC4)cc3C3(CC3)C2=O)c1F [Example 34, 6′-(cyclopentylamino)-2′-(2,6-difluoro-3,5-dimethoxyphenyl)-1′H-spiro[cyclopropane-1,4′-[2,7]naphthyridin]-3′(2′H)-one]
< 100	< 100	< 100	COC(=O)Nc1cc2c(cn1)CN(c1c(F)c(OC)cc(OC)c1F)C(=O)C21CC1 [Example 31, methyl 2′-(2,6-difluoro-3,5-dimethoxyphenyl)-3′-oxo-2′,3′-dihydro-1′H-spiro[cyclopropane-1,4′-[2,7]naphthyridine]-6′-ylcarbamate]
< 100	< 100	< 100	COc1cc(OC)c(F)c(N2Cc3cnc(N)c(-c4cn[nH]c4)c3N(C)C2=O)c1F [Example 12, 7-amino-3-(2,6-difluoro-3,5-dimethoxyphenyl)-1-methyl-8-(1H-pyrazol-4-yl)-3,4-dihydro-pyrido[4,3-d]pyrimidin-2(1H)-one]
< 100	< 100	< 100	COc1cc(OC)c(F)c(N2Cc3cnc(N)c(Cc4ccccc4)c3N(C)C2=O)c1F [Example 20, 7-amino-8-benzyl-3-(2,6-difluoro-3,5-dimethoxyphenyl)-1-methyl-3,4-dihydropyrido[4,3-d]pyrimidin-2(1H)-one]
< 100	< 100	< 100	COc1cc(OC)c(F)c(N2Cc3cnc(N)c(C#N)c3N(C)C2=O)c1F [Example 3, 7-amino-3-(2,6-difluoro-3,5-dimethoxyphenyl)-1-methyl-2-oxo-1,2,3,4-tetrahydropyrido-[4,3-d]pyrimidine-8-carbonitrile]
< 100	< 100	< 100	COc1cc(OC)c(F)c(N2Cc3cnc(N)c(-c4ccnn4C)c3N(C)C2=O)c1F [Example 13, 7-amino-3-(2,6-difluoro-3,5-dimethoxyphenyl)-1-methyl-8-(1-methyl-1H-pyrazol-5-yl)-3,4-dihydropyrido[4,3-d]pyrimidin-2(1H)-one]
